Data as given in EP4745137A1 (Gluetacs Therapeutics (Shanghai) Co., Ltd., priority 2023, dated 2025).

Key:
[1] = tested on: Human breast cancer cells (MDA-MB-231); assay: Tumor cell proliferation inhibition (CellTiter-Meiluncell Luminescent Cell Viability Assay), MDA-MB-231
[2] = target: T1, CK1α (Homo sapiens, UniProt P48729+Q96SW2); assay: Western-blot assay of substrate protein degradation in hPBMCs, CK1α; assay type: cell-based; conditions: 24 hours of compound treatment, 50 nM and 500 nM tested (concentration behind the class not stated)
T1 construct: endogenous in cells; host or cells: hPBMCs (Milecell Biotechnologies)

[3] = target: T2, IKZF3 (Homo sapiens, UniProt Q96SW2+Q9UKT9); assay: Western-blot assay of substrate protein degradation in hPBMCs, IKZF3; assay type: cell-based; conditions: 24 hours of compound treatment, 50 nM and 500 nM tested (concentration behind the class not stated)
T2 construct: endogenous in cells; host or cells: hPBMCs (Milecell Biotechnologies)

[4] = target: T3, GSPT1 (Homo sapiens, UniProt P15170+Q96SW2); assay: Western-blot assay of substrate protein degradation in hPBMCs, GSPT1; assay type: cell-based; conditions: 24 hours of compound treatment, 50 nM and 500 nM tested (concentration behind the class not stated)
T3 construct: endogenous in cells; host or cells: hPBMCs (Milecell Biotechnologies)

[5] = tested on: CCRF-CEM; assay: Tumor cell proliferation inhibition (CellTiter-Meiluncell Luminescent Cell Viability Assay), CCRF-CEM; conditions: Homo sapiens
[6] = target: T4, IKZF2 (Homo sapiens, UniProt Q96SW2+Q9UKS7); assay: Western-blot assay of substrate protein degradation in hPBMCs, IKZF2; assay type: cell-based; conditions: 24 hours of compound treatment, 50 nM and 500 nM tested (concentration behind the class not stated)
T4 construct: endogenous in cells; host or cells: hPBMCs (Milecell Biotechnologies)

[7] = target: T5, WEE1 (Homo sapiens, UniProt P30291+Q96SW2); assay: Western-blot assay of substrate protein degradation in hPBMCs, WEE1; assay type: cell-based; conditions: 24 hours of compound treatment, 50 nM and 500 nM tested (concentration behind the class not stated)
T5 construct: endogenous in cells; host or cells: hPBMCs (Milecell Biotechnologies)

[8] = tested on: Kasumi-1; assay: Tumor cell proliferation inhibition (CellTiter-Meiluncell Luminescent Cell Viability Assay), Kasumi-1; conditions: Homo sapiens
Description: On the following day, the test compounds of the present disclosure were subjected to serial dilution. […] Subsequently, 0.5 µL of the test compound dilution was transferred into the 96-well plate containing the cells, with each well containing 100 µL of cell culture medium. […] Into the 96-well plate, the diluted test compounds and corresponding detection reagents were added, resulting in final test compound concentrations of 500 nM and 10 nM, respectively. The experimental procedure is described below using the diluted 2 µM test compound as an example.
After the cells were treated with the compounds of the present disclosure for a specified period (the treatment durations were shown in Table 3), the cell viability assay reagent was added to the culture medium according to the kit's instructions to determine cell viability. […] All controls were treated using the same procedure as the compounds of the present disclosure. The growth inhibition curves for the compounds of the present disclosure were plotted using Prism GraphPad software, and the IC50 values were calculated therefrom.

[9] = target: T6, IKZF1 (Homo sapiens, UniProt Q13422+Q96SW2); assay: Western-blot assay of substrate protein degradation in hPBMCs, IKZF1; assay type: cell-based; conditions: 24 hours of compound treatment, 50 nM and 500 nM tested (concentration behind the class not stated)
T6 construct: endogenous in cells; host or cells: hPBMCs (Milecell Biotechnologies)

[10] = tested on: Human acute T lymphocytic leukemia cells (Molt-4); assay: Tumor cell proliferation inhibition (CellTiter-Meiluncell Luminescent Cell Viability Assay), Molt-4

T2 sequence (Q9UKT9 whole entry): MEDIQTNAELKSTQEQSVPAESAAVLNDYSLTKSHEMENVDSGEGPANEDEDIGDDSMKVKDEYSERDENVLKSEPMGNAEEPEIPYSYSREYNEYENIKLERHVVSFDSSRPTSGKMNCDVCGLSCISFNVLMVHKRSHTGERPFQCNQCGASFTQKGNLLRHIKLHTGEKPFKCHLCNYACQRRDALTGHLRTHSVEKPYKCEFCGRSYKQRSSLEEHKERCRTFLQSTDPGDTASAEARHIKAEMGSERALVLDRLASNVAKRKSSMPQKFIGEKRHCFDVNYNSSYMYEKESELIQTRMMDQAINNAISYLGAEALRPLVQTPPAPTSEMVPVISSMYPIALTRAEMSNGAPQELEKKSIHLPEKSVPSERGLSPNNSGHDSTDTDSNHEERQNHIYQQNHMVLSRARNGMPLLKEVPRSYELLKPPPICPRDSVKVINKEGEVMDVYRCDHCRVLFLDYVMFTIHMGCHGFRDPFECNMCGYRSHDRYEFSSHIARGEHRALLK
T2 sequence (Q96SW2 whole entry): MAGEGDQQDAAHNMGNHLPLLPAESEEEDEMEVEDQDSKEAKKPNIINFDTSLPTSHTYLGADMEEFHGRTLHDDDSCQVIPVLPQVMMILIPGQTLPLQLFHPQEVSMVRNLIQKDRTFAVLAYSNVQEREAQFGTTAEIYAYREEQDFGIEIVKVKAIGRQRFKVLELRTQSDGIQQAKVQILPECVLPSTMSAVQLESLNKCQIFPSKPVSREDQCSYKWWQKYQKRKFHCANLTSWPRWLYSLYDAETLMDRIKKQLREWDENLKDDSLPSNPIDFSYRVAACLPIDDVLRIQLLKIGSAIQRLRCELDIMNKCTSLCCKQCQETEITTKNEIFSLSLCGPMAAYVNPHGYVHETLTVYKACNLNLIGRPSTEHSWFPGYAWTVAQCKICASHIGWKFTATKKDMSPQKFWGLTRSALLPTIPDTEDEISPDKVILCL
T2 sequence (Q16531 whole entry partner): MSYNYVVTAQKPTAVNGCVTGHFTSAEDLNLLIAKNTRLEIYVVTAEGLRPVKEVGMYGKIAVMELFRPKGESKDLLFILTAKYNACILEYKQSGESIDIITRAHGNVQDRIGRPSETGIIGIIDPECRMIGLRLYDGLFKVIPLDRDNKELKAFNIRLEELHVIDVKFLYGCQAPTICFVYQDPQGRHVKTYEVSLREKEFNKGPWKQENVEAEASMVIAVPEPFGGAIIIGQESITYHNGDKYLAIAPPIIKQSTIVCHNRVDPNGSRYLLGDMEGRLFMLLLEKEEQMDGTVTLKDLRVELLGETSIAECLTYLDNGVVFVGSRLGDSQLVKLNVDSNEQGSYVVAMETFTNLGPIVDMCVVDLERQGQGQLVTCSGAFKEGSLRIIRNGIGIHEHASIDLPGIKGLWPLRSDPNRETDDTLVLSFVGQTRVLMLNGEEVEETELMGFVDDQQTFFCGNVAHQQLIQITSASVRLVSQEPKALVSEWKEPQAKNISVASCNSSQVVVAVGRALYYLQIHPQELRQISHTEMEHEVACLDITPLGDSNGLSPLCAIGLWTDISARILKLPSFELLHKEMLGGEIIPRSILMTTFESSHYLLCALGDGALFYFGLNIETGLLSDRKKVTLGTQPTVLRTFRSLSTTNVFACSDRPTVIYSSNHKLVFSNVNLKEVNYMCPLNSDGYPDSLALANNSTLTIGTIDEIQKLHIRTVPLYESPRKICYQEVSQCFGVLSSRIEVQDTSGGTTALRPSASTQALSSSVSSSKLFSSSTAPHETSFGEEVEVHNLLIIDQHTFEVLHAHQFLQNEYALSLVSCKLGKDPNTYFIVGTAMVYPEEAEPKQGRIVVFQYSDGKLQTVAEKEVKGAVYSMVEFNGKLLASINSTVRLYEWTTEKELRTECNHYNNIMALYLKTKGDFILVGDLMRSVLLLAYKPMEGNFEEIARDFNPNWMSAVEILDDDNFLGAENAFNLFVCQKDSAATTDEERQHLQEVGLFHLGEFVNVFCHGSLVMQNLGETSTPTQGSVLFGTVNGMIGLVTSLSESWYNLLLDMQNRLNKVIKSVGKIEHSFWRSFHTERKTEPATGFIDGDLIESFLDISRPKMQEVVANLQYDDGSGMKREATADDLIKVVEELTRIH
T5 sequence (P30291 whole entry): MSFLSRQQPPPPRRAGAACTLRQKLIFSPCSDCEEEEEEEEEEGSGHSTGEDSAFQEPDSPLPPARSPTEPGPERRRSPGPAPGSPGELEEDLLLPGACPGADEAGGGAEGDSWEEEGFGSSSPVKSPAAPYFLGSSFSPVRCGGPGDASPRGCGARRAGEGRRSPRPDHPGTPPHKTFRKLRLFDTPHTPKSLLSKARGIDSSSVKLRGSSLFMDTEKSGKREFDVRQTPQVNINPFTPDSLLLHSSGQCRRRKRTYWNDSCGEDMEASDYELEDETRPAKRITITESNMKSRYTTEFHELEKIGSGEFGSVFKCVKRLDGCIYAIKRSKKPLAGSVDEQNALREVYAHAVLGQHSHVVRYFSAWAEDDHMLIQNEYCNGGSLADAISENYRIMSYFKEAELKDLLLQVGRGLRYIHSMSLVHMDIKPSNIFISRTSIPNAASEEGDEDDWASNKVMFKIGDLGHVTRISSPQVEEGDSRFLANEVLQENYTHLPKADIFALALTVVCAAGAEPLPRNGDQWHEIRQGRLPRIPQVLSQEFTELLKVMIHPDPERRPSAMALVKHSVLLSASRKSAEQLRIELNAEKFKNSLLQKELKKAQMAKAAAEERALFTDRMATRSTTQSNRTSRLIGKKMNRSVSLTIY
T5 sequence (Q96SW2 whole entry): as the sequence (Q96SW2 whole entry) above
T5 sequence (Q16531 whole entry partner): as the sequence (Q16531 whole entry partner) above
T4 sequence (Q9UKS7 whole entry): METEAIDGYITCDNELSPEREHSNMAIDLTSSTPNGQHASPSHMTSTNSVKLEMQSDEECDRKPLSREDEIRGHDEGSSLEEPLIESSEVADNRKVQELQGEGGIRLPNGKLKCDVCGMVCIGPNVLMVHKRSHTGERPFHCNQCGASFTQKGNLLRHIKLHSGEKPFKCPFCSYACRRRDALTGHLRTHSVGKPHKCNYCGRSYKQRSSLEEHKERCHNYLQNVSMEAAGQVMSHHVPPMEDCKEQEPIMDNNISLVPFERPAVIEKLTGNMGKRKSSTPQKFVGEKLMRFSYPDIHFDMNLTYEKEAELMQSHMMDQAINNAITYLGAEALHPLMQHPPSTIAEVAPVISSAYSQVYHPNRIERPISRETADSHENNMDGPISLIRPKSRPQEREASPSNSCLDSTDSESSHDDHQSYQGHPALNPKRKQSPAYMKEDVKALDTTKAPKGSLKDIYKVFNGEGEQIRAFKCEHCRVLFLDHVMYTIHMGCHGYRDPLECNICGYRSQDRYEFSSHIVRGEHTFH
T4 sequence (Q96SW2 whole entry): as the sequence (Q96SW2 whole entry) above
T4 sequence (Q16531 whole entry partner): as the sequence (Q16531 whole entry partner) above
T1 sequence (P48729 whole entry): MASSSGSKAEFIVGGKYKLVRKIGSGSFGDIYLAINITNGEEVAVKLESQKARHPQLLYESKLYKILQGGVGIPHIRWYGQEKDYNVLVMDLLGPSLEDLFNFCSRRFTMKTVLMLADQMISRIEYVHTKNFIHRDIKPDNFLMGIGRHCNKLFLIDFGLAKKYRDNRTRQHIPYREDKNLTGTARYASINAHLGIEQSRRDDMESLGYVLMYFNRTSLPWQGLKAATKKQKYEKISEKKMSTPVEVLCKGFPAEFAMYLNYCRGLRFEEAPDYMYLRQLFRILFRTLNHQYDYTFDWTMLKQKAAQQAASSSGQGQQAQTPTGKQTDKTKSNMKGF
T1 sequence (Q96SW2 whole entry): as the sequence (Q96SW2 whole entry) above
T1 sequence (Q16531 whole entry partner): as the sequence (Q16531 whole entry partner) above
T6 sequence (Q13422 whole entry): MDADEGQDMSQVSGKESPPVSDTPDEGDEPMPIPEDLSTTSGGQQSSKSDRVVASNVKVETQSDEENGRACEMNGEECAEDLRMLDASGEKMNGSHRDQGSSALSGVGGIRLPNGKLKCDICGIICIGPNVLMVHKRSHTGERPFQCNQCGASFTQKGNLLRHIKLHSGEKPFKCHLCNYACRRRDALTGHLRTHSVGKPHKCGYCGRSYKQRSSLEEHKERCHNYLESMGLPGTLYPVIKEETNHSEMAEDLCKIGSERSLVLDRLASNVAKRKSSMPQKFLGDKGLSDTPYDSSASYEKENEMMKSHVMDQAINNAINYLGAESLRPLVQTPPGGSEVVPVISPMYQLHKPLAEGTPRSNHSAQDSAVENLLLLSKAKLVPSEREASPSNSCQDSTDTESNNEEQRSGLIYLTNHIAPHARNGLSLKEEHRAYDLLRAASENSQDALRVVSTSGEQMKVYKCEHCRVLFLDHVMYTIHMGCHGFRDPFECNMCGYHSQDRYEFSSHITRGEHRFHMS
T6 sequence (Q96SW2 whole entry): as the sequence (Q96SW2 whole entry) above
T6 sequence (Q16531 whole entry partner): as the sequence (Q16531 whole entry partner) above

Q: What does the source list for `O=C1CCC(N2C(=O)c3ccc(CN4CCN(c5nc(N6CCCCC6)nc6c5SCC6)CC4)cc3C2=O)C(=O)N1` (centres unmarked) [GT-08003, 2-(2,6-dioxopiperidin-3-yl)-5-((4-(2-(piperidin-1-yl)-6,7-dihydrothieno[3,2-d]pyrimidin-4-yl)piperazin-1-yl)methyl)isoindoline-1,3-dione]?
A: inhibition at 0.01 µM ([1]; MDA-MB-231, read-out: Inhibition rate (%) at 10 nM): 30 to 40%; inhibition at 0.5 µM ([1]; MDA-MB-231, read-out: Inhibition rate (%) at 500 nM): 30 to 40%; CK1a substrate protein remaining % [2]: A (0% ≤ substrate protein remaining % ≤ 80%); IKZF3 substrate protein remaining % [3]: A (0% ≤ substrate protein remaining % ≤ 80%); GSPT1 substrate protein remaining % [4]: A (0% ≤ substrate protein remaining % ≤ 80%); inhibition at 0.01 µM ([5]; read-out: Inhibition rate (%) at 10 nM): 20 to 30%; inhibition at 0.5 µM ([5]; read-out: Inhibition rate (%) at 500 nM): 90 to 100%; IKZF2 substrate protein remaining % [6]: A (0% ≤ substrate protein remaining % ≤ 80%); Weel substrate protein remaining % [7]: B (80%< substrate protein remaining %≤ 100%); inhibition at 0.01 µM ([8]; Kasumi 1, read-out: Inhibition rate (%) at 10 nM): 5 to 10%; inhibition at 0.5 µM ([8]; Kasumi 1, read-out: Inhibition rate (%) at 500 nM): 80 to 90%; IKZF 1 substrate protein remaining % [9]: A (0% ≤ substrate protein remaining % ≤ 80%); inhibition at 0.01 µM ([10]; MOLT-4, read-out: Inhibition rate (%) at 10 nM): 20 to 30%; inhibition at 0.5 µM ([10]; MOLT-4, read-out: Inhibition rate (%) at 500 nM): 90 to 100%
